Here are results for 2 molecules from patent US7186672B2, “Fungicidal mixtures” (BASF Aktiengesellschaft, priority 2001, dated 2007).

This experiment relates to Erysiphe [syn. Blumeria] graminis forma specialis tritici. Put plainly: Protective activity against mildew of wheat (potted wheat seedlings, greenhouse). As to conditions: wheat cv. Kanzler, 7 days. The class given is in vivo. The procedure:
The active compounds, separately or together, were formulated as a 10% emulsion in a mixture of 63% by weight of cyclohexanone and 27% by weight of emulsifier, and diluted with water to the desired concentration.
Evaluation was carried out by determining the infected leaf areas in percent. These percentages were converted into efficacies. The efficacy (W) was calculated as follows using Abbot's formula: […] • α corresponds to the fungal infection of the treated plants in % and • β corresponds to the fungal infection of the untreated (control) plants in %
An efficacy of 0 means that the infection level of the treated plants corresponds to that of the untreated control plants; an efficacy of 100 means that the treated plants were not infected.
The expected efficacies of the mixtures of the active compounds were determined using Colby's formula [R. S. Colby, Weeds 15, 20–22 (1967)] and compared with the observed efficacies. Colby's formula: E=x+y−x·y/100 • E expected efficacy, expressed in % of the untreated control, when using the mixture of the active compounds A and B at the concentrations a and b • x efficacy, expressed in % of the untreated control, when using active compound A at a concentration of a • y efficacy, expressed in % of the untreated control, when using active compound B at a concentration of b.
Protective Activity Against Mildew of Wheat Caused by Erysiphe [syn. Blumeria] graminis forma specialis tritici
Leaves of potted wheat seedlings of the cultivar “Kanzler” were sprayed to runoff point with an aqueous preparation of active compound which had been prepared from a stock solution made of 10% of active compound, 85% of cyclohexanone and 5% of emulsifier and, 24 hours after the spray coating had dried on, dusted with spores of mildew of wheat (Erysiphe [syn. Blumeria] graminis forma specialis. tritici). The test plants were then placed in a greenhouse at 20–24° C. and 60–90% relative atmospheric humidity. After 7 days, the extent of the mildew development was determined visually in % infection of the total leaf area.
The visually determined percentages of infected leaf area were converted into efficacies as % of the untreated control. An efficacy of 0 means that the infection level of the treated plants corresponds to that of the untreated control; an efficacy of 100 means 0% infection. The expected efficacies of the combinations of active compounds were determined using Colby's formula (Colby, S. R. (Calculating synergistic and antagonistic responses of herbicide Combinations”, Weeds, 15, pp. 20–22, 1967) and compared with the observed efficacies.

The mark [1] stands for this setting: 0.6 ppm active compound in the spray liquor.
Setting [2] is: 1.25 ppm active compound in the spray liquor.

With `Fc1ccc([C@]2(Cn3cncn3)O[C@H]2c2ccccc2Cl)cc1` (racemic) [III.a, (2RS,3SR)-1-[3-(2-chlorophenyl)-2-(4-fluorophenyl)-oxiran-2-ylmethyl]-1H-1,2,4-triazole], the “Efficacy in % of the untreated control” value is on record as 4% (0.3 ppm active compound in the spray liquor), 4% under setting [1] and 4% under setting [2].
With pyraclostrobin [II-6], the “Efficacy in % of the untreated control” value was determined as 36% under setting [1], 47% under setting [2] and 57% (2.5 ppm active compound in the spray liquor).
